Measured values from patent US10695589B1, “Method and kit for home controlled ovarian stimulation for in vitro fertilization” (priority 2019, dated 2020).
Square brackets hold non-standard residues; d marks the D form. Peptide text beside a SMILES is read from it. d(hArg(Et2)) = CCN=C(NCC)NCCCC[C@@H](N)C(=O)O; hArg(Et2) = CCN=C(NCC)NCCCC[C@H](N)C(=O)O; dPhe(4-Cl) = N[C@H](Cc1ccc(Cl)cc1)C(=O)O; d2Nal = N[C@H](Cc1ccc2ccccc2c1)C(=O)O; d3Pal = N[C@H](Cc1cccnc1)C(=O)O

What was measured:
[1] = system: Luteinizing hormone (LH) blood level; assay: LH blood hormone level in patients on home controlled ovarian hyperstimulation method with vaginal elagolix (Example 2); type: in vivo, female patients
Procedure: On day 9 of the menstrual cycle, the patient is directed to orally take 50 to 150 mg, preferably 100 mg, (one, two, or three 50 mg oral tablets) of clomiphene citrate and to either insert vaginally or take orally, depending on the patient's preference, a gonadotropin-releasing hormone (GnRH) antagonist such as elagolix (marketed as ORILISSA®), instead of the expensive injections of ganirelix acetate (GANIRELEX®) or cetrorelix acetate (marketed as CETROTIDE®) used routinely in conventional practices. A dose of 25 mg (⅛^th of a pill) up to 200 mg of elagolix (1 full pill), preferably 25 mg, will be used, with the dose being the same whether inserted vaginally or taken orally. Elagolix is a GnRH antagonist that is conventionally used in the treatment of pain associated with endometriosis in women, not for the treatment of infertility. By blocking the GnRH receptor, elagolix suppresses LH release by the pituitary gland and thus prevents LH surge. Ultimately, elagolix suppresses gonadal steroid production, thereby reducing circulating levels of sex hormones such as progesterone, estradiol, and testosterone. Elagolix is generally an oral medication (oral tablet), however in the present method, elagolix is a tablet taken mainly as a vaginal suppository, but may be taken orally based on the patient's preference. Additionally, the lowest and most preferred dose of elagolix (25 mg) that is used is one-eighth of the daily dosage conventionally administered for the treatment of endometriosis (e.g., 200 mg to 400 mg daily). […] Alternative GnRH receptor antagonists that can be used instead of elagolix include linzagolix and relugolix.
Five female patients were treated with the controlled ovarian hyperstimulation method described herein using the elagolix pill (vaginal route) instead of the conventional Ganirelex/Cetrotide injectables. On day 3 of the patient's menstrual cycle, the patient orally took 100 mg (two 50 mg oral tablets) of clomiphene citrate and 5 mg (two 2.5 mg oral tablets) of letrozole. The patient then took the same oral dosages of clomiphene citrate and letrozole daily on each of days 4-7 of the patient's menstrual cycle. On day 8 of the patient's menstrual cycle, the patient orally took only 100 mg (two 50 mg oral tablets) of clomiphene citrate, and stopped the letrozole. On day 9 of the menstrual cycle, the patient orally took 100 mg (two 50 mg oral tablets) of clomiphene citrate and inserted vaginally a 50 mg tablet of elagolix as a vaginal suppository. On day 10 of the menstrual cycle, the patient orally took only 100 mg (two 50 mg oral tablets) of clomiphene citrate. On day 11 of the menstrual cycle, the patient orally took 100 mg (two 50 mg oral tablets) of clomiphene citrate and inserted vaginally a 50 mg tablet of elagolix as a vaginal suppository. Also, on day 11, the patient took a home ovulation test in the morning (9:00 am) and in the evening (9:00 pm). For the patients whose ovulation tests were not positive, then on days 12 and 13, the patient took 2 doses of leuprorelin as a nasal spray (1:40 dilution in saline) as follows. On day 12, after taking a home ovulation test at 9:00 am, 2 puffs (sprays) of the nasal spray were self-administered by the patient per nostril. After 12 hours of waiting, at 9:00 pm the patient took a home urine ovulation test and then self-administered 2 more puffs (sprays) of the nasal spray per nostril. On day 13, the patient repeated the procedure of day 12. Luteinizing hormone (LH) blood level was 7.0 mIU/mL on day 11 and dropped to 1.0 mIU/mL on day 13.
(§1) Table 2 below provides a comparison of the efficacy of conventional Ganirelex/Cetrotide injectables treatment for IVF in the five representative patients from Example 1 with the home controlled ovarian hyperstimulation method described herein in the five representative patients from Example 2.

[2] = system: Luteinizing hormone (LH) blood level; assay: LH blood hormone level in patients on conventional GnRH antagonist protocol with Ganirelex/Cetrotide injectables (Example 1); type: in vivo, female patients
Procedure: Five female patients were treated with a GnRH antagonist protocol requiring injections of medications.
One patient, patient no. 1, was injected with 150 Units of FSH on days 3 to 12; half a syringe of 150 mcg/0.5 mL of ganirelix acetate on days 11 and 12; and 50 mg of clomiphene citrate on days 3 to 12; and 2.5 mg of letrozole on days 3 to 7. Luteinizing hormone (LH) blood level was 4.3 mIU/mL on day 10 and dropped to 2 mIU/mL on day 12.
A second patient, patient no. 2, was injected with 75 Units of FSH on days 4 to 12 and 150 Units on day 13; half a syringe of 150 mcg/0.5 mL of ganirelix acetate on days 11 to 13; 50 mg of clomiphene citrate on days 10 to 12, and 2.5 mg of letrozole on days 3 to 7. Luteinizing hormone (LH) blood level was 12.0 mIU/mL on day 11 and dropped to 6.3 mIU/mL on day 13.
Three patients, numbered 3 to 5, were injected with 75, 150 and 225 Units of FSH, respectively, on days 4 to 12 and one third a syringe of 150 mcg/0.5 mL of ganirelix acetate on days 11 to 13. Patient no. 3 received 50 mg of clomiphene citrate on days 4 to 12, and 2.5 mg of letrozole on days 4 to 8. Patient no. 4 received 100 mg of clomiphene citrate and 2.5 mg of letrozole on days 4 to 8, and 50 mg of clomiphene citrate on days 9 to 11. Patient no. 5 received no clomiphene citrate or letrozole. Luteinizing hormone (LH) blood level was 12.0, 18.0 and 14.6 mIU/mL, respectively, on day 10 and dropped to 4.9, 16.0 and 14.1 mIU/mL, respectively, on day 12.
as §1

[3] = Example 2 patient 4, 50 mg elagolix vaginal suppository on days 9 and 11
[4] = Example 2 patient 5, 50 mg elagolix vaginal suppository on days 9 and 11

## COc1cccc(-c2c(C)n(Cc3c(F)cccc3C(F)(F)F)c(=O)n(C[C@H](NCCCC(=O)O)c3ccccc3)c2=O)c1F [elagolix]
[1]; Example 2 patient 1, day 11, 50 mg elagolix tablet as vaginal suppository on days 9 and 11, clomiphene citrate 100 mg days 3-11, letrozole 5 mg days 3-7
  LH blood hormone level BEFORE medication intake: 7.0 mIU/mL
[1]; Example 2 patient 1, day 13, 50 mg elagolix vaginal suppository on days 9 and 11
  LH blood hormone level AFTER medication intake: 1.0 mIU/mL
[1]; Example 2 patient 2, 50 mg elagolix vaginal suppository on days 9 and 11
  LH blood hormone level AFTER medication intake: 5.7 mIU/mL
[1]; Example 2 patient 3, 50 mg elagolix vaginal suppository on days 9 and 11
  LH blood hormone level AFTER medication intake: 3.2 mIU/mL
[1]; [3]
  LH blood hormone level AFTER medication intake: 1.7 mIU/mL
  LH blood hormone level BEFORE medication intake: 8.2 mIU/mL
[1]; [4]
  LH blood hormone level AFTER medication intake: 0.8 mIU/mL
  LH blood hormone level BEFORE medication intake: 7 mIU/mL
[1]; lower dose of elagolix taken as a vaginal suppository instead of orally
  GnRH antagonist effect in the patients: effective GnRH antagonist

## CCN=C(NCC)NCCCC[C@H](NC(=O)[C@H](CC(C)C)NC(=O)[C@@H](CCCCNC(=NCC)NCC)NC(=O)[C@H](Cc1ccc(O)cc1)NC(=O)[C@H](CO)NC(=O)[C@@H](Cc1cccnc1)NC(=O)[C@@H](Cc1ccc(Cl)cc1)NC(=O)[C@@H](Cc1ccc2ccccc2c1)NC(C)=O)C(=O)N1CCC[C@H]1C(=O)N[C@H](C)C(N)=O [Ganirelex, ganirelix acetate] (Ac-[d2Nal][dPhe(4-Cl)][d3Pal]SY[d(hArg(Et2))]L[hArg(Et2)]P[dA]-NH2)
[2]; Example 1 patient 1, day 10, half a syringe of 150 mcg/0.5 mL ganirelix acetate on days 11 and 12, FSH 150 Units days 3-12, clomiphene citrate 50 mg days 3-12, letrozole 2.5 mg days 3-7
  LH blood hormone level BEFORE medication intake: 4.3 mIU/mL
[2]; Example 1 patient 1, day 10 to day 12
  % Drop in blood LH hormone level: 53.5%
[2]; Example 1 patient 1, day 10 to day 12, listed as Conventional Ganielex/Cetrotide Injectables
  % Drop in blood LH hormone level: 53.5%
[2]; Example 1 patient 1, day 12, half a syringe ganirelix acetate on days 11 and 12
  LH blood hormone level AFTER medication intake: 2 mIU/mL
[2]; Example 1 patient 1, day 12, half a syringe ganirelix acetate on days 11 and 12, listed as Conventional Ganielex/Cetrotide Injectables
  LH blood hormone level AFTER medication intake: 2.0 mIU/mL
[2]; Example 1 patient 2, day 11, half a syringe of 150 mcg/0.5 mL ganirelix acetate on days 11 to 13, FSH 75 Units days 4-12 and 150 Units day 13, clomiphene citrate 50 mg days 10-12, letrozole 2.5 mg days 3-7
  LH blood hormone level BEFORE medication intake: 12.0 mIU/mL
[2]; Example 1 patient 2, day 11 to day 13
  % Drop in blood LH hormone level: 47.5%
[2]; Example 1 patient 2, day 11 to day 13, listed as Conventional Ganielex/Cetrotide Injectables
  % Drop in blood LH hormone level: 47.5%
[2]; Example 1 patient 2, day 13, half a syringe ganirelix acetate on days 11 to 13
  LH blood hormone level AFTER medication intake: 6.3 mIU/mL
[2]; Example 1 patient 3, day 10, one third a syringe of 150 mcg/0.5 mL ganirelix acetate on days 11 to 13, FSH 75 Units days 4-12, clomiphene citrate 50 mg days 4-12, letrozole 2.5 mg days 4-8
  LH blood hormone level BEFORE medication intake: 12.0 mIU/mL
[2]; Example 1 patient 3, day 10 to day 12
  % Drop in blood LH hormone level: 59.25%
[2]; Example 1 patient 3, day 10 to day 12, listed as Conventional Ganielex/Cetrotide Injectables
  % Drop in blood LH hormone level: 59.2%
[2]; Example 1 patient 3, day 12, one third a syringe ganirelix acetate on days 11 to 13
  LH blood hormone level AFTER medication intake: 4.9 mIU/mL
[2]; Example 1 patient 4, day 10, one third a syringe of 150 mcg/0.5 mL ganirelix acetate on days 11 to 13, FSH 150 Units days 4-12, clomiphene citrate 100 mg and letrozole 2.5 mg days 4-8, clomiphene citrate 50 mg days 9-11
  LH blood hormone level BEFORE medication intake: 18.0 mIU/mL
[2]; Example 1 patient 4, day 10 to day 12
  % Drop in blood LH hormone level: 11.1%
[2]; Example 1 patient 4, day 10 to day 12, listed as Conventional Ganielex/Cetrotide Injectables
  % Drop in blood LH hormone level: 11.1%
[2]; Example 1 patient 4, day 12, one third a syringe ganirelix acetate on days 11 to 13
  LH blood hormone level AFTER medication intake: 16.0 mIU/mL
[2]; Example 1 patient 5, day 10, one third a syringe of 150 mcg/0.5 mL ganirelix acetate on days 11 to 13, FSH 225 Units days 4-12, no clomiphene citrate or letrozole
  LH blood hormone level BEFORE medication intake: 14.6 mIU/mL
[2]; Example 1 patient 5, day 10 to day 12
  % Drop in blood LH hormone level: 3.4%
[2]; Example 1 patient 5, day 10 to day 12, listed as Conventional Ganielex/Cetrotide Injectables
  % Drop in blood LH hormone level: 3.4%
[2]; Example 1 patient 5, day 12, one third a syringe ganirelix acetate on days 11 to 13
  LH blood hormone level AFTER medication intake: 14.1 mIU/mL
